# From ChEMBL document CHEMBL4007467, “Effects of 6-paradol, an unsaturated ketone from gingers, on cytochrome P450-mediated drug metabolism” (Bioorg Med Chem Lett, 2017)
# Columns and labels:
# Format in all cases: ADME
# CYP2D6 = CYP2D6 (Homo sapiens, UniProt P10635); assay: Inhibition of CYP2D6 in human liver microsomes assessed as enzyme-mediated metabolite formation at 0.1 uM using dextromethorphan as substrate incubated for 5 mins followed by NADPH addition measured after 30 mins by LC-MS/MS analysis relative to control; set-up: scale not given: the % may be the effect or the level left; conditions: probe dextromethorphan, read-out: Activity
# Chain of CYP2D6 (P10635 whole entry): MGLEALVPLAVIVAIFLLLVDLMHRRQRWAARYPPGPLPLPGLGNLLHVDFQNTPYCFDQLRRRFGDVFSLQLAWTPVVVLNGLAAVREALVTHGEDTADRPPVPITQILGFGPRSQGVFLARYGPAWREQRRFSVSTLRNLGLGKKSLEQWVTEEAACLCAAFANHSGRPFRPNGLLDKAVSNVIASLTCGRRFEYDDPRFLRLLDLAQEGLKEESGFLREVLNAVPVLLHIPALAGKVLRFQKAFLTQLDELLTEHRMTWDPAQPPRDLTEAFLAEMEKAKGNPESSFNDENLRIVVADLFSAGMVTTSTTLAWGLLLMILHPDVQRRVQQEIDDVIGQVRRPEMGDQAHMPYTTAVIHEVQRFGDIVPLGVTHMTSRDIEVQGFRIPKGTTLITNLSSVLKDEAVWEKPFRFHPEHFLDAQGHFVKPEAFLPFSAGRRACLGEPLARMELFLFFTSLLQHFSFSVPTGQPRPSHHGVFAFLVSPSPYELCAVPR
# CYP2C8 = molecular target: T1, CYP2C8 (Homo sapiens, UniProt P10632); assay: Inhibition of CYP2C8 in human liver microsomes assessed as enzyme-mediated metabolite formation at 0.1 uM using paclitaxel as substrate incubated for 5 mins followed by NADPH addition measured after 30 mins by LC-MS/MS analysis relative to control; set-up: scale not given: the % may be the effect or the level left; conditions: probe paclitaxel, read-out: Activity
# T1 sequence (P10632 whole entry): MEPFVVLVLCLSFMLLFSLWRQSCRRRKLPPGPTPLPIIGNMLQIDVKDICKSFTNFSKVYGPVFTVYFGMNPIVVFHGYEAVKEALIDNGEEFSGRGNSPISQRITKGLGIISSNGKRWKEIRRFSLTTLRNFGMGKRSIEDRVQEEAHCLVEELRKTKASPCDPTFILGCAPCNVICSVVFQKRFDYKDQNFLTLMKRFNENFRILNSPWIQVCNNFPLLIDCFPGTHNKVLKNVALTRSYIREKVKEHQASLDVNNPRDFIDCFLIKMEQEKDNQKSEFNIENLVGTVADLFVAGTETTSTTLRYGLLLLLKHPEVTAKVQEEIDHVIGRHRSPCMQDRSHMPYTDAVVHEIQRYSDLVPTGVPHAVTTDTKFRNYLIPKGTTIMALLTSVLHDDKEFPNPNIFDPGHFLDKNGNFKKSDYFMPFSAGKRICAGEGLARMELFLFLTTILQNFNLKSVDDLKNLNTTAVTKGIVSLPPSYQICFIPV
# CYP2C9 = CYP2C9 (Homo sapiens, UniProt P11712); assay: Inhibition of CYP2C9 in human liver microsomes assessed as enzyme-mediated metabolite formation at 10 uM using diclofenac as substrate preincubated for 20 mins followed by substrate addition measured after 30 mins in presence of NADPH by LC-MS/MS analysis relative to control; set-up: scale not given: the % may be the effect or the level left; conditions: probe diclofenac, read-out: Activity
# Chain of CYP2C9 (P11712 whole entry): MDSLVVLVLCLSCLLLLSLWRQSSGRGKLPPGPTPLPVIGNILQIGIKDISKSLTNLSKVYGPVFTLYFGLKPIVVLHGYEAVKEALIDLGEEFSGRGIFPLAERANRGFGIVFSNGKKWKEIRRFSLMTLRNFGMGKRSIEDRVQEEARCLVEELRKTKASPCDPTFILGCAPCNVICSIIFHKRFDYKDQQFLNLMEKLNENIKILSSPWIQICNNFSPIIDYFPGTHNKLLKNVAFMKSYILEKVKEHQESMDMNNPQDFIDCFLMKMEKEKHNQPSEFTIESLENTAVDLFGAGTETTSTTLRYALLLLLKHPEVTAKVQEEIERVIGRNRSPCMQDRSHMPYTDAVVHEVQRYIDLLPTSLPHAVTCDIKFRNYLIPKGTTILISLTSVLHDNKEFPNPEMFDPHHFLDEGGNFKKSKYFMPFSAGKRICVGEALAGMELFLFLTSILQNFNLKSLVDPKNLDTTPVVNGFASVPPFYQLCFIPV
# CYP2B6 [1] = molecular target: T2, CYP2B6 (Homo sapiens, UniProt P20813); assay: Inhibition of CYP2B6 in human liver microsomes assessed as enzyme-mediated metabolite formation at 30 uM using bupropion as substrate incubated for 5 mins followed by NADPH addition measured after 30 mins by LC-MS/MS analysis relative to control; set-up: scale not given: the % may be the effect or the level left; conditions: probe bupropion, read-out: Activity
# T2 sequence (P20813 whole entry): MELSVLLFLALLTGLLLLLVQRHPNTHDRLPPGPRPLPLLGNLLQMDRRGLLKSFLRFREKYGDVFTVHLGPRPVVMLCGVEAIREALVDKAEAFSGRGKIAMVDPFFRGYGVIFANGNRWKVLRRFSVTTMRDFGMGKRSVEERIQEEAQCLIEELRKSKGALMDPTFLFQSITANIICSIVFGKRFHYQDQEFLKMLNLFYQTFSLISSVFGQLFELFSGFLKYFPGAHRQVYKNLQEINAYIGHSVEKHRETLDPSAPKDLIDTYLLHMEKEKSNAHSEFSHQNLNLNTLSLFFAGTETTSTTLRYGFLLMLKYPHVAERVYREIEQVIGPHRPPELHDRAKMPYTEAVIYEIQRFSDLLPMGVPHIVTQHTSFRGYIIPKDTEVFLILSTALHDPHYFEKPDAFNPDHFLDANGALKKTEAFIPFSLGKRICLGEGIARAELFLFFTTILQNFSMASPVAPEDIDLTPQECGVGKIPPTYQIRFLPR
# CYP2A6 = molecular target: T3, CYP2A6 (Homo sapiens, UniProt P11509); assay: Inhibition of CYP2A6 in human liver microsomes assessed as enzyme-mediated metabolite formation at 30 uM using coumarin as substrate preincubated for 20 mins followed by substrate addition measured after 30 mins in presence of NADPH by LC-MS/MS analysis relative to control; set-up: scale not given: the % may be the effect or the level left; conditions: probe coumarin, read-out: Activity
# T3 sequence (P11509 whole entry): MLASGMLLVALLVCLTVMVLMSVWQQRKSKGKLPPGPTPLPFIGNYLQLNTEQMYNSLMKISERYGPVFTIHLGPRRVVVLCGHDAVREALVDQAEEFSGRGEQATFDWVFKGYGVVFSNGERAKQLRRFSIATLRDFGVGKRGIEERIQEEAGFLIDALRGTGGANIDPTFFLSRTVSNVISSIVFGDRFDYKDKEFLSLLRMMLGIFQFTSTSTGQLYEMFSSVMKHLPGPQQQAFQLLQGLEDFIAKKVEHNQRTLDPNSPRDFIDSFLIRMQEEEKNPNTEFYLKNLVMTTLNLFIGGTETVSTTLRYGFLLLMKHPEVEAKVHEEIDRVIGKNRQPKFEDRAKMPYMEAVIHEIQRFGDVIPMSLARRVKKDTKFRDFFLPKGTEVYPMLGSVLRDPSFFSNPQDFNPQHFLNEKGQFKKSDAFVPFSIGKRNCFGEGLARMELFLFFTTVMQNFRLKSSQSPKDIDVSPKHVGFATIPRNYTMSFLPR
# CYP2B6 [2] = molecular target: T2, CYP2B6; assay: Inhibition of CYP2B6 in human liver microsomes assessed as enzyme-mediated metabolite formation at 1 uM using bupropion as substrate incubated for 5 mins followed by NADPH addition measured after 30 mins by LC-MS/MS analysis relative to control; set-up: scale not given: the % may be the effect or the level left; conditions: probe bupropion, read-out: Activity
# CYP2B6 [3] = molecular target: T2, CYP2B6; assay: Inhibition of CYP2B6 in human liver microsomes assessed as enzyme-mediated metabolite formation at 10 uM using bupropion as substrate preincubated for 20 mins followed by substrate addition measured after 30 mins in presence of NADPH by LC-MS/MS analysis relative to control; set-up: scale not given: the % may be the effect or the level left; conditions: probe bupropion, read-out: Activity
# Cytochrome P450 3A4 = Cytochrome P450 3A4 (Homo sapiens, UniProt P08684); assay: Inhibition of CYP3A4 in human liver microsomes assessed as enzyme-mediated metabolite formation using midazolam as substrate incubated for 5 mins followed by NADPH addition measured after 30 mins by LC-MS/MS analysis
# Chain of Cytochrome P450 3A4 (P08684 whole entry): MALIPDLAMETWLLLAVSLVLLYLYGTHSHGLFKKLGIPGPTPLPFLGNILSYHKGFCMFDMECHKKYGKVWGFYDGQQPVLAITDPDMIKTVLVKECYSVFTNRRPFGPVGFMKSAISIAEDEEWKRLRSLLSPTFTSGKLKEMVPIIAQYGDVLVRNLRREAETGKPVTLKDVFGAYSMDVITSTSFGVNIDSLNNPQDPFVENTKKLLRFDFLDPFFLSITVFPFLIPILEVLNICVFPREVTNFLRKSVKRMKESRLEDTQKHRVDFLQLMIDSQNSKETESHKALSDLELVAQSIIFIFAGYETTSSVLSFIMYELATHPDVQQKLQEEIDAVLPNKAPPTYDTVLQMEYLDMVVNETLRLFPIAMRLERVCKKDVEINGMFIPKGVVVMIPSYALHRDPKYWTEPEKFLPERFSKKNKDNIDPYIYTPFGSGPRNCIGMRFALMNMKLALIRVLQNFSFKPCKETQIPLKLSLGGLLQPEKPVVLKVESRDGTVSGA
# CYP2C19 = CYP2C19 (Homo sapiens, UniProt P33261); assay: Inhibition of CYP2C19 in human liver microsomes assessed as enzyme-mediated metabolite formation at 0.3 uM using (S)-mephenytoin as substrate preincubated for 20 mins followed by substrate addition measured after 30 mins in presence of NADPH by LC-MS/MS analysis relative to control; set-up: scale not given: the % may be the effect or the level left; conditions: probe (S)-mephenytoin, read-out: Activity
# Chain of CYP2C19 (P33261 whole entry): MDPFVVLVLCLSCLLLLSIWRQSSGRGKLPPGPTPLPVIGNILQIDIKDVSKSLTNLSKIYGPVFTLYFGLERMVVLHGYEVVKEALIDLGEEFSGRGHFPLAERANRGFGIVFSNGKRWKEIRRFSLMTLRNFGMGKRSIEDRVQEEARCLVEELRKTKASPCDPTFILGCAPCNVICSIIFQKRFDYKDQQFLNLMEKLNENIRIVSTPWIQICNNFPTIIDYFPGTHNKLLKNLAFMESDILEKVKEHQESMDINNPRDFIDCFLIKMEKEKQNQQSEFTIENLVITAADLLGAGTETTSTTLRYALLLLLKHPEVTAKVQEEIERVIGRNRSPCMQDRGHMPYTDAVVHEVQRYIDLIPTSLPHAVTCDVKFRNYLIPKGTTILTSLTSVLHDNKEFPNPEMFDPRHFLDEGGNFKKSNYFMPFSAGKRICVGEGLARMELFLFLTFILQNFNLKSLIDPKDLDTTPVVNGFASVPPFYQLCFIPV
# Cytochrome P450 2C9 = Cytochrome P450 2C9 (Homo sapiens, UniProt P11712); assay: Inhibition of CYP2C9 in human liver microsomes using diclofenac as substrate preincubated for 20 mins followed by substrate addition measured after 30 mins in presence of NADPH by LC-MS/MS analysis
# Chain of Cytochrome P450 2C9 (P11712 whole entry): as the sequence (P11712 whole entry) above
# Cytochrome P450 2D6 = Cytochrome P450 2D6 (Homo sapiens, UniProt P10635); assay: Inhibition of CYP2D6 in human liver microsomes assessed as enzyme-mediated metabolite formation using dextromethorphan as substrate incubated for 5 mins followed by NADPH addition measured after 30 mins by LC-MS/MS analysis
# Chain of Cytochrome P450 2D6 (P10635 whole entry): as the sequence (P10635 whole entry) above
# Cytochrome P450 2A6 = molecular target: T4, Cytochrome P450 2A6 (Homo sapiens, UniProt P11509); assay: Inhibition of CYP2A6 in human liver microsomes assessed as enzyme-mediated metabolite formation using coumarin as substrate incubated for 5 mins followed by NADPH addition measured after 30 mins by LC-MS/MS analysis
# T4 sequence (P11509 whole entry): T3 sequence (P11509 whole entry)
compound,measurement,setting,value
CCCCCCCC(=O)CCc1ccc(O)c(OC)c1,"activity at 0.5 h, 0.1 µM",CYP2D6,112%
same,"activity at 0.5 h, 0.1 µM",CYP2C8,88.7%
same,"activity at 0.5 h, 10 µM",CYP2C9,60.8%
same,"activity at 0.5 h, 30 µM",CYP2B6 [1],37%
same,"activity at 0.5 h, 30 µM",CYP2A6,79.9%
same,"activity at 0.5 h, 1 µM",CYP2B6 [2],63.2%
same,"activity at 0.5 h, 10 µM",CYP2B6 [3],54.3%
same,IC50,Cytochrome P450 3A4,> 30 µM
same,"activity at 0.5 h, 0.3 µM",CYP2C19,81.5%
same,IC50,Cytochrome P450 2C9,9.9 µM
same,IC50,Cytochrome P450 2D6,> 30 µM
same,IC50,Cytochrome P450 2A6,> 30 µM
